Legend:
[1] = tested on: acetylation of the histone H3 Lysine 14 marker in U2OS cells; test: Histone H3 Lysine 14 Acetylation Biomarker Assay; type: cell-based; conditions: Homo sapiens, serum free medium, 24 hours incubation, read-out: IC50, inhibition of histone H3 Lysine 14 acetylation
Protocol: Compounds were tested for their ability to inhibit acetylation of the histone H3 Lysine 14 marker in the following assay:
The cell line U2OS was seeded at a density of 3,000 cells per well in 384-well optical quality tissue culture plates in RPMI medium supplemented with 10% foetal bovine serum and 10 mM Hepes. The cells were allowed to adhere for 24 hours under standard culture conditions (37 degree Celsius, 5% CO2). At the end of this period the cells were washed with serum free medium. […] After incubation for 24 hours, the cells were fixed with 4% formaldehyde in PBS for 15 minutes at room temperature, washed with phosphate buffer saline and blocked with blocking buffer containing 0.2% TritonX100 and 2% BSA. Anti-H3K14ac specific antibody (Cell Signalling Technologies) in blocking buffer was added and incubated overnight at 4 degree Celsius. After washing, a secondary antibody labelled with AlexaFluor 488 dye (ThermoFisher) and Hoechst 33342 (1 μg/mL, Life Technologies) were added for 2 hours incubation at room temperature. Plates were washed and read on a PerkinElmer Opera HCS high content imaging platform. Using a Columbus image analysis pipeline, individual nuclei were located by Hoechst 33342 stain and the acetylation level was calculated from the AlexaFluor 488-related intensity in the same area.

[2] = molecular target: MOZ-KAT6A (Homo sapiens, UniProt Q92794, A567V); test: Acetyltransferase biochemical assay (AlphaScreen), KAT6A
[3] = molecular target: TIP60-KAT5 (Homo sapiens, UniProt Q92993); test: Acetyltransferase biochemical assay (AlphaScreen), KAT5
[4] = molecular target: HBO-KAT7 (Homo sapiens, UniProt O95251); test: Acetyltransferase biochemical assay (AlphaScreen), KAT7
[5] = tested on: histone H2A.Z Lysine 7 acetylation marker in U2OS cells; test: H2A.Z Lysine 7 Acetylation Biomarker Assay; type: cell-based; conditions: Homo sapiens, serum free medium, 24 hours incubation, read-out: IC50, inhibition of histone H2A.Z Lysine 7 acetylation
Protocol: Compounds were tested for their ability to inhibit the histone H2A.Z Lysine 7 acetylation marker in the following assay:
The cell line U2OS was seeded at a density of 3,000 cells per well in 384-well optical quality tissue culture plates in RPMI medium supplemented with 10% foetal bovine serum and 10 mM Hepes. The cells were allowed to adhere for 24 hours under standard culture conditions (37 degree Celsius, 5% CO2). At the end of this period the cells were washed with serum free medium. […] 2018, at 30 μM concentration. After incubation for 24 hours, the cells were fixed with 4% formaldehyde in PBS for 15 minutes at room temperature, washed with phosphate buffer saline and blocked with blocking buffer containing 0.2% TritonX100 and 2% BSA. Anti-H2A.ZK7ac specific antibody (Abcam) in blocking buffer was added and incubated overnight at 4 degree Celsius. After washing, a secondary antibody labelled with AlexaFluor 488 dye (ThermoFisher) and Hoechst 33342 (1 μg/mL, Life Technologies) were added for 2 hours incubation at room temperature. Plates were washed and read on a PerkinElmer Opera HCS high content imaging platform. Using a Columbus image analysis pipeline, individual nuclei were located by Hoechst 33342 stain and the acetylation level was calculated from the AlexaFluor 488-related intensity in the same area.

[6] = molecular target: T1, MOF-KAT8 (Homo sapiens, UniProt Q9H7Z6); test: biochemical
T1 sequence (Q9H7Z6 with tags, fused parts or gaps): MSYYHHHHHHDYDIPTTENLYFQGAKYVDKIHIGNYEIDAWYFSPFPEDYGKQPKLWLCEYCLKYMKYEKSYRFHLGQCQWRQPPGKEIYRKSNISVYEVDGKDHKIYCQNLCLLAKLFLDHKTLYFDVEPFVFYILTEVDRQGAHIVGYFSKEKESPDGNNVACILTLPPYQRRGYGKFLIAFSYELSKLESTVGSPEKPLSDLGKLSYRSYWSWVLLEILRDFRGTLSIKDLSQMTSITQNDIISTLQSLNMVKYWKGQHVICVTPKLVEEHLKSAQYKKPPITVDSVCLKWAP

Sequence of TIP60-KAT5 (Q92993 with tags, fused parts or gaps isoform Q92993-2): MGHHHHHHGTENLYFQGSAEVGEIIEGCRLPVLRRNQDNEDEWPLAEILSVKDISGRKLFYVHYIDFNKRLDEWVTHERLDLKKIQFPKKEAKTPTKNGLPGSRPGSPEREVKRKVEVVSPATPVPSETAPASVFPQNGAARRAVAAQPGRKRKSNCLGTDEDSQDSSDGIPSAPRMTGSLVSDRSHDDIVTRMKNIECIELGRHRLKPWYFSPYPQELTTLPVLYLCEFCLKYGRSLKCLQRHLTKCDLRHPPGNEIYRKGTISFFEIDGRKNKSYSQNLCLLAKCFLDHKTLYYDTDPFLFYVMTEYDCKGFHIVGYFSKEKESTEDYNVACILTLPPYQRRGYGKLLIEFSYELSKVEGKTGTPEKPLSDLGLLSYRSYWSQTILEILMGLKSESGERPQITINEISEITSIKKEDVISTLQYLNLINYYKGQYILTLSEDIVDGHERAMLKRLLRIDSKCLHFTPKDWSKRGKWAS
Sequence of MOZ-KAT6A (Q92794 with tags, fused parts or gaps A567V): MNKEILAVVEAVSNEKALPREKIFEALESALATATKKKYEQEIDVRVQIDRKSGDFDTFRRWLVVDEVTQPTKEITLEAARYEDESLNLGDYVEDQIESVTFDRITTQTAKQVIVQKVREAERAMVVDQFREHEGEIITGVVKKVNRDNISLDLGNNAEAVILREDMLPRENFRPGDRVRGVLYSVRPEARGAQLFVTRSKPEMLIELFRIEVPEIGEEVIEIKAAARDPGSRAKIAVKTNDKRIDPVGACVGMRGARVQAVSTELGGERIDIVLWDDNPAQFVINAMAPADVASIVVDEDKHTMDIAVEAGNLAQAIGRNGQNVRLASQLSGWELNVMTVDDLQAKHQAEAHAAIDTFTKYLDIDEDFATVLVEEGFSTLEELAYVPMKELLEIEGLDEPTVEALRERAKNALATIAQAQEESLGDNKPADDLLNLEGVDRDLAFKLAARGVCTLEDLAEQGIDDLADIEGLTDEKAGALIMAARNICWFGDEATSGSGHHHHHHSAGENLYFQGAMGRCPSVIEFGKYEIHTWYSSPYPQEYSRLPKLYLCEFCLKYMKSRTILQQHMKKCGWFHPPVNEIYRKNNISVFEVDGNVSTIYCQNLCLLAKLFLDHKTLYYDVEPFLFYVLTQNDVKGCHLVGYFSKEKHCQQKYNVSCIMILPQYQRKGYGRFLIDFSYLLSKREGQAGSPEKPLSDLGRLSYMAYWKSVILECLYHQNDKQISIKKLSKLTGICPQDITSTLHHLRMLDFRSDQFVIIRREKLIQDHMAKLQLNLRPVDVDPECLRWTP
Sequence of HBO-KAT7 (O95251 with tags, fused parts or gaps): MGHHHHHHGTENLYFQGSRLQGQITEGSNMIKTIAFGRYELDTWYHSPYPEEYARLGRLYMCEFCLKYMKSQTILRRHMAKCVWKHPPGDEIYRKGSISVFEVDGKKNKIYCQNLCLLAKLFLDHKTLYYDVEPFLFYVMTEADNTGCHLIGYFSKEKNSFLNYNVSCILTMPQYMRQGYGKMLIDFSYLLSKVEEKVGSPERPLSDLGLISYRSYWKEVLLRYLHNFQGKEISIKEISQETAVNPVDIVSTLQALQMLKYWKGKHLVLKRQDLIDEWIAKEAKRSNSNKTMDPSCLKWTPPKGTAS

Row | IC50 [1] | IC50 [5] | Compound | IC50 [2] | IC50 [3] | IC50 [4] | IC50 [6]
1 | 31.7 µM | – | COc1ccc(S(=O)(=O)Nc2noc3cccc(OC)c23)c2ncccc12 [Example 74, 5-methoxy-N-(4-methoxybenzo[d]isoxazol-3-yl) quinoline-8-sulfonamide] | 3.91 µM | 8.13 µM | 1.66 µM | –
2 | > 40 µM | – | COc1ccnc2c(S(=O)(=O)Nc3noc4cccc(OC)c34)cccc12 [Example 75, 4-methoxy-N-(4-methoxybenzo[d]isoxazol-3-yl)quinoline-8-sulfonamide] | 23.5 µM | 33.5 µM | 5.75 µM | –
3 | 11.5 µM | – | COc1cccc2onc(NS(=O)(=O)c3cccc4ccc(C)nc34)c12 [Example 80, N-(4-methoxybenzo[d]isoxazol-3-yl)-2-methyl quinoline-8-sulfonamide] | 3.47 µM | 10.9 µM | 1.13 µM | –
4 | 12.6 µM | – | COc1cccc2onc(NS(=O)(=O)c3cccc4c3OCCC4)c12 [Example 82, N-(4-methoxybenzo[d]isoxazol-3-yl)chromane-8-sulfonamide] | 6.13 µM | 8.25 µM | 1.5 µM | –
5 | 3.96 µM | 19.8 µM | COc1cccc(OC)c1S(=O)(=O)Nc1noc2cc(Br)cc(OC)c12 [Example 89] | 0.285 µM | 5.79 µM | 0.168 µM | –
6 | – | – | O=S(=O)(Nc1noc2cccc(Cl)c12)c1ccccc1 [Example 151, N-(4-chlorobenzo[d]isoxazol-3-yl)benzenesulfonamide] | 27.9 µM | > 125 µM | 25.6 µM | 34.7 µM
7 | – | – | CCc1ccc(OC)c(S(=O)(=O)Nc2noc3cccc(Cl)c23)c1 [Example 154] | 0.516 µM | 25.3 µM | 3.13 µM | 2.57 µM
8 | – | – | COCc1cc(OC)c2c(NS(=O)(=O)c3c(OC)cccc3OC)noc2c1Cl [Example 161] | 1.87 µM | > 125 µM | 2.51 µM | 118 µM
9 | – | – | COCc1cc2onc(NS(=O)(=O)c3ccc(OC)nc3)c2cc1C [Example 164, 6-methoxy-N-(6-(methoxymethyl)-5-methylbenzo[d]isoxazol-3-yl)pyridine-3-sulfonamide] | 27.2 µM | > 125 µM | 61.6 µM | > 125 µM
10 | – | – | COCc1cc2onc(NS(=O)(=O)c3cccnc3)c2cc1C [Example 165, N-(6-(methoxymethyl)-5-methylbenzo[d]isoxazol-3-yl)pyridine-3-sulfonamide] | 99.9 µM | > 125 µM | 30.7 µM | > 125 µM
11 | – | – | COc1ccc(S(=O)(=O)Nc2noc3ccc(C)cc23)c(OC)c1 [Example 170, 2,4-dimethoxy-N-(5-methylbenzo[d]isoxazol-3-yl)benzenesulfonamide] | 1.5 µM | 4.83 µM | 0.982 µM | 9.67 µM
12 | 2.57 µM | – | COc1ccc(S(=O)(=O)Nc2noc3cc(Br)c(C)cc23)c(OC)c1 [Example 171] | 1.88 µM | 4.37 µM | 0.292 µM | –
13 | – | – | CCc1ccc2onc(NS(=O)(=O)c3cc4c(cc3OC)CCCC4)c2c1 [Example 204, N-(5-Ethylbenzo[d]isoxazol-3-yl)-3-methoxy-5,6,7,8-tetrahydronaphthalene-2-sulfonamide] | 0.4 µM | 4.57 µM | 3.05 µM | 3.06 µM
14 | – | – | COc1cc2c(cc1S(=O)(=O)Nc1noc3ccc(C4CC4)cc13)CCCC2 [Example 205, N-(5-Cyclopropylbenzo[d]isoxazol-3-yl)-3-methoxy-5,6,7,8-tetrahydronaphthalene-2-sulfonamide] | 0.115 µM | 3.73 µM | 0.936 µM | 3.44 µM
15 | 10.3 µM | – | COc1cccc(F)c1S(=O)(=O)Nc1noc2cccc(OC)c12 [Example 212, 2-Fluoro-6-methoxy-N-(4-methoxybenzo[d]isoxazol-3-yl)benzenesulfonamide] | 2.12 µM | 9.3 µM | 1.05 µM | –
16 | – | – | CNc1cccc(OC)c1S(=O)(=O)Nc1noc2cccc(OC)c12 [Example 214, 2-Methoxy-N-(4-methoxybenzo[d]isoxazol-3-yl)-6-(methylamino)benzenesulfonamide] | 36.4 µM | > 125 µM | > 125 µM | > 125 µM
17 | – | – | COc1cc(COc2cccc(OC)c2S(=O)(=O)Nc2noc3cccc(OC)c23)ccn1 [Example 216, 2-Methoxy-N-(4-methoxybenzo[d]isoxazol-3-yl)-6-((2-methoxypyridin-4-yl)methoxy)benzenesulfonamide] | 0.625 µM | 124 µM | 3.11 µM | 11.2 µM
18 | > 40 µM | – | CCOc1cccc(OC)c1S(=O)(=O)Nc1noc2cccc(OC)c12 [Example 218, 2-Ethoxy-6-methoxy-N-(4-methoxybenzo[d]isoxazol-3-yl)benzenesulfonamide] | 6.59 µM | > 125 µM | 6.44 µM | –
19 | – | – | COc1cccc(OCC(N)=O)c1S(=O)(=O)Nc1noc2cccc(OC)c12 [Example 219, 2-(3-Methoxy-2-(N-(4-methoxybenzo[d]isoxazol-3-yl)sulfamoyl)phenoxy)acetamide] | 33.3 µM | > 125 µM | 60.7 µM | 69.9 µM
20 | – | – | COc1cccc(OCc2cnn(C)c2)c1S(=O)(=O)Nc1noc2cccc(OC)c12 [Example 221, 2-Methoxy-N-(4-methoxybenzo[d]isoxazol-3-yl)-6-((1-methyl-1H-pyrazol-4-yl)methoxy)benzenesulfonamide] | 37.5 µM | > 125 µM | 63.7 µM | 27.9 µM
21 | – | – | COc1cccc(OC)c1S(=O)(=O)Nc1noc2cccc([N+](=O)[O-])c12 [Example 223, 2,6-Dimethoxy-N-(4-nitrobenzo[d]isoxazol-3-yl)benzenesulfonamide] | 25.5 µM | > 125 µM | 43.5 µM | 42.4 µM
22 | – | – | COc1cccc(OC)c1S(=O)(=O)Nc1noc2cccc(N)c12 [Example 224] | 50.4 µM | > 125 µM | > 125 µM | 113 µM
23 | – | > 40 µM | CCc1ccc(OC)c(S(=O)(=O)Nc2noc3ccc(C)cc23)c1 [Example 234, 5-Ethyl-2-methoxy-N-(5-methylbenzo[d]isoxazol-3-yl)benzenesulfonamide] | 0.381 µM | 10.9 µM | 3.74 µM | –

Row | Compound | IC50 [1] | IC50 [5] | IC50 [2] | IC50 [3] | IC50 [4] | IC50 [6]
24 | COCc1cc(OC)c2c(NS(=O)(=O)c3c(O)cccc3OC)noc2c1 [Example 163, 2-hydroxy-6-methoxy-N-(4-methoxy-6-(methoxymethyl)benzo[d]isoxazol-3-yl)benzenesulfonamide] | 20.4 µM | – | 0.884 µM | > 125 µM | 13.1 µM | > 125 µM
25 | COc1ccc(S(=O)(=O)Nc2noc3cc(C(N)=O)c(C)cc23)c2ncccc12 [Example 168, 3-((5-methoxyquinoline)-8-sulfonamido)-5-methylbenzo[d]isoxazole-6-carboxamide] | – | > 40 µM | 10 µM | 3.42 µM | 36.4 µM | 6.46 µM
26 | COc1cc(CNC(C)=O)cc(OC)c1S(=O)(=O)Nc1noc2cccc(OC)c12 [Example 211, N-(3,5-Dimethoxy-4-(N-(4-methoxybenzo[d]isoxazol-3-yl)sulfamoyl)benzyl)acetamide] | > 40 µM | – | 2.13 µM | 7.93 µM | 0.917 µM | 29.5 µM

— patent US12365655B2, “Compounds” (CTXT PTY LTD, priority 2018, dated 2025)
